What was measured:
[1] = Dissolution of paracetamol in hydroalcoholic solution; type: physicochemical; conditions: ethanol at 45%
Method: The coefficient for dissolution of paracetamol in ethanol makes it possible to obtain a complete dissolution of said active ingredient at a level of 250 mg of paracetamol per 2 ml of ethanol at 45%. This coefficient can be modulated based on the degree of alcohol and the water/ethanol ratio that is used. By way of example, a 45% water/ethanol mixture at 50/50 by volume produces a better solubilization of paracetamol, compared to that obtained in pure ethanol.

[2] = administered dosage; cited from earlier work

complete dissolution of the active ingredient [1]: 250 mg per 2 ml
SMILES: CC(=O)Nc1ccc(O)cc1 [paracetamol]
dosage above which toxic to the liver [2]: higher than 4 g
